Results taken from US20210275621A1, “COMPOSITION FOR PREVENTING, ALLEVIATING, IMPROVING, OR TREATING THE FEMALE HORMONE CONTROLLING DISORDER SYNDROME OR SYMPTOMS COMPRISING GREEN TEA EXTRACT WHICH HAS MODIFIED AMOUNTS OF INGREDIENTS” (AMOREPACIFIC CORPORATION, priority 2020, published 2021).

Tests used:
Type in all cases: cell-based
[1] = tested on: MCF-7 cells (breast cancer cells); test: MCF-7 breast cancer cell growth (cell counting); settings: 100 pM, 48 hours; FIG. 7
[2] = target: T1, estrogen receptor ERα (Homo sapiens, UniProt P03372); test: Human ERα/β reporter assay panel (ERE-luc), ERα; settings: 1 μg/mL, 24 hours; FIG. 6
T1 construct: host or cells: reporter cells included in the purchased panel
T1 sequence (P03372 1-595): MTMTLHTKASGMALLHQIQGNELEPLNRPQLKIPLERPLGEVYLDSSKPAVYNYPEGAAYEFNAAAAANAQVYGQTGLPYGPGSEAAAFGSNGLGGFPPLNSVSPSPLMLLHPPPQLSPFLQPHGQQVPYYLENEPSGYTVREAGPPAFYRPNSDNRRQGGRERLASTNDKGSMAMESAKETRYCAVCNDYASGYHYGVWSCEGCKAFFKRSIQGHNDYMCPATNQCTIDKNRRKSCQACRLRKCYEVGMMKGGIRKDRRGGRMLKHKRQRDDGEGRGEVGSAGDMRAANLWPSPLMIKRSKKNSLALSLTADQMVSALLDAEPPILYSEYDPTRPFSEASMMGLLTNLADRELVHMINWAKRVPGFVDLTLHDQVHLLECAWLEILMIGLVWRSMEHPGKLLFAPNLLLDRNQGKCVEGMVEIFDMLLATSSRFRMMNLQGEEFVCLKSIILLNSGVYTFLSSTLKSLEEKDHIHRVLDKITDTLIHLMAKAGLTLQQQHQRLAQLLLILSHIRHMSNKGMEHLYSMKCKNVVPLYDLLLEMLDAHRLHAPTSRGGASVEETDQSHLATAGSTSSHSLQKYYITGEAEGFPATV
Method: (§1) For evaluation of the effect of activating estrogen receptors alpha and beta (ERα/β) of the notified green tea extract, the high-temperature-processed green tea extract and theanine depending on the weight ratio of GCG:EGCG, a human ERα/β reporter assay panel (IB00421-48P, Indigo Bioscience) was treated with 20 μg/mL sample 1 (notified green tea extract), 20 μg/mL sample 2 (high-temperature-processed green tea extract), 20 μg/mL sample 3, or 20 μg/mL sample 4 of Preparation Example 1 or 2, or 1 μg/mL theanine of Preparation Example 3, for 24 hours and then the increased activity of the estrogen receptors ERα and ERβ was analyzed.
(§2) Specifically, ERα and ERβ are overexpressed and the ERE-luc reporter gene is included in the cells included in the human ERα/β reporter assay panel. If the activity of the estrogen receptors is increased upon treatment with the test substance, ERα and ERβ are bound to ERE and the expression of luciferase is induced. Therefore, the activity of ERα and ERβ can be determined by measuring light emission from the cells.

[3] = target: T2, estrogen receptor ERβ (Homo sapiens, UniProt Q92731); test: Human ERα/β reporter assay panel (ERE-luc), ERβ; settings: 1 μg/mL, 24 hours; FIG. 6
T2 construct: host or cells: reporter cells included in the purchased panel
Method: as §1, §2

T2 sequence (Q92731 whole entry): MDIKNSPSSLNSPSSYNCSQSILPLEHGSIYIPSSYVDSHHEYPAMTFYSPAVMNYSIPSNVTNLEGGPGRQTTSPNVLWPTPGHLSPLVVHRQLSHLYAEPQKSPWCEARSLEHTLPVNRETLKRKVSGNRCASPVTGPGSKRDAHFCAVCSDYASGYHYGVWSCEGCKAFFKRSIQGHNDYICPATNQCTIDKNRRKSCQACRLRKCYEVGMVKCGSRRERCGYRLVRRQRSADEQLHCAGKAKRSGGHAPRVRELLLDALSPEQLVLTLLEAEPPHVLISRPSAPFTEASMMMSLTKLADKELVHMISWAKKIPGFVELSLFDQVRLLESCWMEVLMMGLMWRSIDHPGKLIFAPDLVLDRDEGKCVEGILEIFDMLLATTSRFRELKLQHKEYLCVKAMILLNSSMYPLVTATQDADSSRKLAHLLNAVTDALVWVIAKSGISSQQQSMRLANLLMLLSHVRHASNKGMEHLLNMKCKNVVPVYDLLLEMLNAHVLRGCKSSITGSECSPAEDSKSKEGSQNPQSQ

SMILES: C[C@]12CC[C@@H]3c4ccc(O)cc4CC[C@H]3[C@@H]1CC[C@@H]2O [17b-estradiol]
- growth of MCF-7 cells (number of cells) [1]: promoted significantly

SMILES: CCNC(=O)CC[C@H](N)C(=O)O [theanine, L-theanine]
- activity of estrogen receptor ERα (luciferase activity) [2]: no receptor-activating effect
- activity of estrogen receptor ERβ (luciferase activity) [3]: no receptor-activating effect
